In patent publication US9919998B2, “Antibacterial agents: Nα-aroyl-N-aryl-phenylalaninamides” (priority 2014, dated 2018):
Values after ≈ are worked out from the molar mass of the structure shown. Values joined by “and” are separate entries in the source; they are usually repeats but may differ in a detail not shown here. Identical values can stand only once. Like-named read-outs stand apart in the source and are kept apart here.

Assays:
[1] = test system: rifampin-resistant mutants, derivatives of M. smegmatis ATCC19420; assay: MICs in rifampin-resistant mutants (cross-resistance levels); format: cell-based, Mycobacterium smegmatis
Description: (§1) MICs in Mycobacterium smegmatis ATCC 19420 and Mycobacterium smegmatis ATCC 19420 derivatives were quantified using broth microdilution assays as described [Clinical and Laboratory Standards Institute (CLSI/NCCLS) (2009) Methods for Dilution Antimicrobial Susceptibility Tests for Bacteria That Grow Aerobically; Approved Standard, Eighth Edition. CLIS Document M07-A8 (CLIS, Wayne Pa.)].

[2] = test system: AAP1-resistant mutants, derivatives of M. smegmatis ATCC19420; assay: MICs in AAP1-resistant mutants (resistance and cross-resistance levels); format: cell-based, Mycobacterium smegmatis; conditions: for cross-resistance of AAP1-resistant mutants to the compound: MICs in AAP1-resistant mutants
[3] = test system: Mycobacterium smegmatis ATCC 19420; assay: Spontaneous resistance rate, fluctuation assays; format: cell-based; conditions: 96 h fluctuation assays, M. smegmatis ATCC19420
Description: Resistance rates were determined using fluctuation assays [Luria, S., Delbrück, M. (1943) Genetics 28, 491-511.]. […] (at least 3 independent determinations for each concentration of each test compound). Resistance rates and 95% confidence intervals were calculated using the Ma-Sandri-Sarkar Maximum Likelihood Estimator (MSS-MLE [Ma, W., Sandri, GvH., Sarkar, S. (1992.) J. Appl. Probab. 29, 255-267; Sarkar, S., Ma, W., Sandri, GvH. (1992) Genetica 85, 173-179]) as implemented on the Fluctuation Analysis Calculator (FALCOR; www.keshavsingh.org/protocols/FALCOR.html [Hall, B., Ma, C., Liang, P., Singh, K (2009) Bioinformatics 25, 1564-1565]). Sampling correction was performed as in [Stewart, F., Gordon, D., Levin, B. (1990) Genetics 124, 175-185; Jones, M. (1993) Mutat. Res. 292, 187-189].

[4] = test system: Mycobacterium tuberculosis H37Rv; assay: Microplate Alamar Blue assay (MABA) MIC, M. tuberculosis; format: cell-based
Description: (§2) Minimal inhibitory concentrations (MICs) in Mycobacterium tuberculosis H37Rv and Mycobacterium avium ATCC 25291 were quantified using microplate Alamar Blue assays as described (MABA; [Collins, L. & Franzblau, S. (1997) Microplate Alamar Blue assay versus BACTEC 460 system for high-throughput screening of compounds against Mycobacterium tuberculosis and Mycobacterium avium. Antimicrob. Agents Chemother. 41, 1004-1009]).

[5] = test system: Mycobacterium smegmatis ATCC 19420; assay: Broth microdilution MIC, M. smegmatis; format: cell-based; conditions: Mycolicibacterium smegmatis
Description: as §1

[6] = biological target: Mycobacterium tuberculosis RNA polymerase (Mycobacterium tuberculosis, UniProt P9WGY7+P9WGY9); assay: Run-off transcription assay with Mycobacterium tuberculosis RNA polymerase (radiochemical); format: biochemical
Mycobacterium tuberculosis RNA polymerase, sequence (P9WGZ1 whole entry, the tested form may be a part): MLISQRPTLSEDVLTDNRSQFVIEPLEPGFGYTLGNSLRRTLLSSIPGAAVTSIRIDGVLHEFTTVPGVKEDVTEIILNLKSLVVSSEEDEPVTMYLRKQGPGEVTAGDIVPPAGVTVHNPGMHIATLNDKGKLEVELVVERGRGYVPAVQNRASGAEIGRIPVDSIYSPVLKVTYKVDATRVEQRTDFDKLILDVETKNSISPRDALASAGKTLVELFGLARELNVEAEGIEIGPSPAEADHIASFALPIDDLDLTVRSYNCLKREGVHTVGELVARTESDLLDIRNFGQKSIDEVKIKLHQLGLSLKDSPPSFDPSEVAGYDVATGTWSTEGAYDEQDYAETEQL
Mycobacterium tuberculosis RNA polymerase, sequence (P9WGY5 whole entry, further chain, the tested form may be a part): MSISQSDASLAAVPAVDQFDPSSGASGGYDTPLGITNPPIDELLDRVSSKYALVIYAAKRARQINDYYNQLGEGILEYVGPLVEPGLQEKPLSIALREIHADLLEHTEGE
Mycobacterium tuberculosis RNA polymerase, sequence (P9WGY9 whole entry, the tested form may be a part): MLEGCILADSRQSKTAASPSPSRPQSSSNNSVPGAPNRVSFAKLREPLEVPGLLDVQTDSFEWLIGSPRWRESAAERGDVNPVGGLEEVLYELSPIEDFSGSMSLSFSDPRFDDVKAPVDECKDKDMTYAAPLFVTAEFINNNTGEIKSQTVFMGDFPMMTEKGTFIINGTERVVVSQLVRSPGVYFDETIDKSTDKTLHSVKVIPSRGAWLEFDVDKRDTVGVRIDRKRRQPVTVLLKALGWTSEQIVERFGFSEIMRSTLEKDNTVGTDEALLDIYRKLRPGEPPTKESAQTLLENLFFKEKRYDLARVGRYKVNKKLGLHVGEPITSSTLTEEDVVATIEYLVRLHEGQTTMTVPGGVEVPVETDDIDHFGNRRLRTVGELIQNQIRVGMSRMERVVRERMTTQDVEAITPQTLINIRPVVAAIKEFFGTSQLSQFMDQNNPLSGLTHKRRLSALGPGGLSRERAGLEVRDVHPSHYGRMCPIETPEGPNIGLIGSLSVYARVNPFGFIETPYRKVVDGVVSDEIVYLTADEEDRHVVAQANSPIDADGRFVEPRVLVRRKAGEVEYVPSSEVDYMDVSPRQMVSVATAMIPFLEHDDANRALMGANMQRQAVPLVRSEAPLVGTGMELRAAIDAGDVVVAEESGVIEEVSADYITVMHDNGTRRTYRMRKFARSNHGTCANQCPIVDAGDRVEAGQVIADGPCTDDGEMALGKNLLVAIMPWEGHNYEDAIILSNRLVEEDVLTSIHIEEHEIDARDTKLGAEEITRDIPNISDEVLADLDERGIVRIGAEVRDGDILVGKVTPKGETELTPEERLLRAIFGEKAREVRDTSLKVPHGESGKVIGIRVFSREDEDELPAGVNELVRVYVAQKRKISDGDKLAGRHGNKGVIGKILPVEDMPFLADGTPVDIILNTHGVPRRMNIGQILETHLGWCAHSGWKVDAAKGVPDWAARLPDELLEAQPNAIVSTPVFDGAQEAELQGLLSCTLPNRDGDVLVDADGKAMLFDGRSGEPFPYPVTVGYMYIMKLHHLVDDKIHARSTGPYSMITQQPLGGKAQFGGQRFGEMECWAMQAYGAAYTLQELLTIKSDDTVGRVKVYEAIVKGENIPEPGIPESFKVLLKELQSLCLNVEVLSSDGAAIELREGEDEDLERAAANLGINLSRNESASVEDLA
Mycobacterium tuberculosis RNA polymerase, sequence (P9WGI1 whole entry, further chain, the tested form may be a part): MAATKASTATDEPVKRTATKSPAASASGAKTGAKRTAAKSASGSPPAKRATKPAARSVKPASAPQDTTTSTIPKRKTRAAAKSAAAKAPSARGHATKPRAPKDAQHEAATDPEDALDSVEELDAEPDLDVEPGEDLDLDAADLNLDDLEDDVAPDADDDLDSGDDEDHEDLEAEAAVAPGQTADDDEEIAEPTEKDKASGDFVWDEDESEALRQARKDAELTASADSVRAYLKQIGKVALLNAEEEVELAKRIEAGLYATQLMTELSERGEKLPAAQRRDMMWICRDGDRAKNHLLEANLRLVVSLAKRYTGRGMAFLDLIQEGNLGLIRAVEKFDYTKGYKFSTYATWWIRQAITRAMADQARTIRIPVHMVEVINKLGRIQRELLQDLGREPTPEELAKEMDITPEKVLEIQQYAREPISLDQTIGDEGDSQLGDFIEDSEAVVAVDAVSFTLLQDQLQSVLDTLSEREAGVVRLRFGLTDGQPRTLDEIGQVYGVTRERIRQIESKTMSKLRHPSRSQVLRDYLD
Mycobacterium tuberculosis RNA polymerase, sequence (P9WGY7 whole entry, the tested form may be a part): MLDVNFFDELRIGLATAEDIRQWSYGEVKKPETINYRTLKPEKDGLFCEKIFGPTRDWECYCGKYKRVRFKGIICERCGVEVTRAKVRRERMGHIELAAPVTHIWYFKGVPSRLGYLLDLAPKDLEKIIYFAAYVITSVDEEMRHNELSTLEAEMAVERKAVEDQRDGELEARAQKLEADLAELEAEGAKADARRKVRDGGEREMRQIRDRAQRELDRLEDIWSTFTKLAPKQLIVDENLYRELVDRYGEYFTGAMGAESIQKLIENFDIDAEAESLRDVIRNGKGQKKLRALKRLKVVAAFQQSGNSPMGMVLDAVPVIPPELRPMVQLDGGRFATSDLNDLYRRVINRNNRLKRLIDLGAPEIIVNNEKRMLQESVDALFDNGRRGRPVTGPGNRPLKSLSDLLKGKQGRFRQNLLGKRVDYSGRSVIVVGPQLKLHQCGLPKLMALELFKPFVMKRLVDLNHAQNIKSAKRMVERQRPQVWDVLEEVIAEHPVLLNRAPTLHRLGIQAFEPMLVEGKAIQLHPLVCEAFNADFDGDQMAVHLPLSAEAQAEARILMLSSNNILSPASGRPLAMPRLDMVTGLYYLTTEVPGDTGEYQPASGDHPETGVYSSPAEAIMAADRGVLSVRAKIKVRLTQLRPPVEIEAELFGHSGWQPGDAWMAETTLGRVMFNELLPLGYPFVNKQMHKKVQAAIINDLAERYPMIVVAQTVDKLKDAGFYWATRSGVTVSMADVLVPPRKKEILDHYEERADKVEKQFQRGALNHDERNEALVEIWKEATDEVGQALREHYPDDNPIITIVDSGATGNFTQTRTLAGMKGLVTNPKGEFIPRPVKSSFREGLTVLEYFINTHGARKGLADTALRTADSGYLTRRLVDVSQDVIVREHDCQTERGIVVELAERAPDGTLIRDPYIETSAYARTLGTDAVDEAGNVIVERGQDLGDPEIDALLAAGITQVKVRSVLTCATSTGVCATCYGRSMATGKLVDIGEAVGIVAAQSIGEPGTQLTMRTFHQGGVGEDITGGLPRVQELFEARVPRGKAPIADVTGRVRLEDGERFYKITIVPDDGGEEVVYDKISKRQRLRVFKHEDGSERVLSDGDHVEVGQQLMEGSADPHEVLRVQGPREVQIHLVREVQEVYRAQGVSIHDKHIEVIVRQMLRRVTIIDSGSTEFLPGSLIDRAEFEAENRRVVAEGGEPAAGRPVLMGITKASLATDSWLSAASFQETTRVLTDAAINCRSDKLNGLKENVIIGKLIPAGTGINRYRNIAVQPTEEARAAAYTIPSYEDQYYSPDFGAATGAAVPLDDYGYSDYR
Description: Run-off transcription assays with Mycobacterium tuberculosis RNA polymerase were performed using reaction mixtures containing (10 μl): 0-100 μM test compound, 75 nM Mycobacterium tuberculosis RNA polymerase core enzyme, 300 nM Mycobacterium tuberculosis σ^A, 20 nM 130 bp DNA fragment containing positions −100 to −1 of the bacteriophage […] N25 promoter followed by positions +1 to +30 of the lacUV5-15 promoter of [Mukhopadhyay, J., Kapanidis, A., Mekler, V., Kortkhonjia, E., Ebright, Y., Ebright, R. (2001) Cell 106, 453-463], 25 nM [alpha-^32P]UTP (600 Bq/pmol) for an initial 2 min at 37° C. and 100 μM [alpha-^32P]UTP (6 Bq/pmol) for a subsequent 5 min at 37° C., 100 μM ATP, 100 μM GTP, 100 μM UTP, 100 μM CTP, 40 mM Tris-HCl, pH 8.0, 80 mM NaCl, 5 mM MgCl2, 2.5 mM DTT, and 12.7% glycerol. Reactions were terminated by addition of […] 80% formamide, 10 mM EDTA, 0.04% bromophenol blue, and 0.04% xylene cyanol, followed by heating for 5 min at 90° C. Reaction products were resolved by 15% urea-PAGE, and quantified using a storage-phosphor scanner.

[7] = test system: Mycobacterium avium ATCC 25291; assay: Microplate Alamar Blue assay (MABA) MIC, M. avium; format: cell-based; conditions: ATCC25291, M. avium ATCC 25291
Description: as §2

[8] = test system: Vero E6 ATCC CRL1586 cells; assay: Mammalian-cell cytotoxicity, minimal cytotoxic concentration (CellTiter96); format: cell-based
Description: Minimal cytotoxic concentrations (MCCs) against mammalian cells in culture were determined using Vero E6 ATCC CRL1586 cells and the CellTiter96 assay kit (Promega, Inc.). […]

[9] = test system: Mycobacterium smegmatis, Mycobacterium tuberculosis, and Mycobacterium avium; assay: organism not typed; format: cell-based; conditions: read-out: MICs, inhibition of mycobacterial growth
[10] = biological target: Escherichia coli RNA polymerase (Escherichia coli, UniProt P0A8T7+P0A8V2); assay: Analogous run-off transcription assay with Escherichia coli RNA polymerase; format: biochemical; conditions: run-off transcription assays with Escherichia coli RNA polymerase; read-out: IC50 for inhibition of Escherichia coli RNA polymerase
[11] = Inhibition of mycobacterial RNA polymerase (IC50s), radiochemical transcription assays, M. tuberculosis RNA polymerase
[12] = read-out: MIC Mycobacterium tuberculosis H37Rv
[13] = ATCC19420, M. smegmatis ATCC 19420, read-out: MIC Mycobacterium smegmatis ATCC 19420
[14] = IC50 Mycobacterium tuberculosis RNA polymerase

| SMILES | cross-resistance of rifampin-resistant mutants to the compound [1] | hypersensitivity of rifampin-resistant mutants to the compound [1] | resistance of tested AAP1-resistant mutants ([2]; all tested AAP1-resistant mutants) [fold] | spontaneous resistance rate at 2xMIC ([3]; 2xMIC) | spontaneous resistance rate at 4xMIC ([3]; 4xMIC) | spontaneous resistance rate at 8xMIC ([3]; 8xMIC) | MIC ([4]; MABA-MIC assays, read-out: Inhibition of mycobacterial growth in culture (MICs)) [µg/mL] | MIC ([5]; ATCC19420, broth microdilution assays, M. smegmatis ATCC19420, read-out: Inhibition of mycobacterial growth in culture (MICs)) [µg/mL] | MIC ([5]; ATCC19420, read-out: MIC with wild-type rpoB and wild-type rpoC, M. smegmatis ATCC19420 wild type, reference for AAP1-resistant mutants) [µg/mL] | IC50 [6, 11] | MIC [7] [µg/mL] | MCC mammalian cells Vero E6 ATCC CRL1586 [8] [µg/mL] | cross-resistance of AAP1-resistant mutants to the compound [2] | MIC [4, 12] [µg/mL] | MIC [5, 13] [µg/mL] | MIC [9] [µg/mL] | solubility (physchem) [µM] | IC50 [10] [µM] | IC50 [6, 14] [nM] |
| --- | --- | --- | --- | --- | --- | --- | --- | --- | --- | --- | --- | --- | --- | --- | --- | --- | --- | --- | --- |
| Cc1ccccc1NC(=O)C(Cc1ccccc1)NC(=O)c1ccccc1 (racemic) [AAP1, Nα-benzoyl-N-(2-methylphenyl)-D/L-phenylalaninamide] | No rifampin-resistant mutant was found to exhibit cross-resistance | One rifampin-resistant mutant was found to be hypersensitive | > 60 | 5 × 10^−9/generation | 4 × 10^−9/generation | 5 × 10^−9/generation | 6.25 (≈ 17.4 µM) | 0.39 (≈ 1.09 µM) | 0.78 (≈ 2.18 µM) | 680 nM | – | – | – | – | – | – | – | – | – |
| O=C(NC(Cc1ccccc1)C(=O)Nc1cc(F)ccc1N1CCNCC1)c1ccccc1F (racemic) [IX-214, 2-fluoro-N-(1-((5-fluoro-2-(piperazin-1-yl)phenyl)amino)-1-oxo-3-phenylpropan-2-yl)benzamide] | No rifampin-resistant mutant was found to exhibit cross-resistance | – | – | – | – | – | – | – | – | – | 1.56 (≈ 3.36 µM) | 7 | cross-resistance | 1.56 (≈ 3.36 µM) | 0.195 (≈ 0.42 µM) | ≥ 0.073 | – | – | – |
| O=C(NC(Cc1ccccc1)C(=O)Nc1cccc2[nH]ncc12)c1ccccc1 (centres unmarked) [IX-37, N-(1-((1H-indazol-4-yl)amino)-1-oxo-3-phenylpropan-2-yl)benzamide] | No rifampin-resistant mutant was found to exhibit cross-resistance | – | – | – | – | – | – | – | – | – | 12.5 (≈ 32.5 µM) | 55 | cross-resistance | 12.5 (≈ 32.5 µM) | 0.195 (≈ 0.507 µM) | – | > 10 | 10 | 3300 |
| O=C(N[C@H](Cc1ccccc1)C(=O)Nc1cc(Cl)ccc1N1CCNCC1)c1ccccc1F [IX-274a, (R)—N-(1-((5-chloro-2-(piperazin-1-yl)phenyl)amino)-1-oxo-3-phenylpropan-2-yl)-2-fluorobenzamide] | – | – | – | – | – | – | – | – | – | ≥ 10 nM and 10 to 74 nM | 0.39 (≈ 0.811 µM) | – | – | 0.78 (≈ 1.62 µM) | 0.073 (≈ 0.152 µM) | ≥ 0.073 | – | – | 17 |
